Measurements as given in ChEMBL document CHEMBL6071157, “Improved N-phenylpyrrolamide inhibitors of DNA gyrase as antibacterial agents for high-priority bacterial strains” (Eur J Med Chem, 2024).
pIC50: −log10 of the molar value. Values after ≈ are worked out from the molar mass of the structure shown.

Target: DNA gyrase (Escherichia coli, UniProt P0AES4+P0AES6)
Experiment: Inhibition of Escherichia coli DNA gyrase by supercoiling plate assay
Format: protein-complex assay
Settings: not given

Going from Cc1[nH]c(C(=O)Nc2ccc(-c3noc(=O)[nH]3)cc2N2CCCC2)c(Cl)c1Cl to Cc1[nH]c(C(=O)Nc2ccc(-n3nn[nH]c3=O)cc2N2CC[C@H](N)C2)c(Cl)c1Cl.Cl, the pIC50 rises from 7.90 to 8.31 (0.41 log units).

Target: DNA gyrase (Staphylococcus aureus, UniProt P0A0K8+P20831)
Sequence (P0A0K8 whole entry): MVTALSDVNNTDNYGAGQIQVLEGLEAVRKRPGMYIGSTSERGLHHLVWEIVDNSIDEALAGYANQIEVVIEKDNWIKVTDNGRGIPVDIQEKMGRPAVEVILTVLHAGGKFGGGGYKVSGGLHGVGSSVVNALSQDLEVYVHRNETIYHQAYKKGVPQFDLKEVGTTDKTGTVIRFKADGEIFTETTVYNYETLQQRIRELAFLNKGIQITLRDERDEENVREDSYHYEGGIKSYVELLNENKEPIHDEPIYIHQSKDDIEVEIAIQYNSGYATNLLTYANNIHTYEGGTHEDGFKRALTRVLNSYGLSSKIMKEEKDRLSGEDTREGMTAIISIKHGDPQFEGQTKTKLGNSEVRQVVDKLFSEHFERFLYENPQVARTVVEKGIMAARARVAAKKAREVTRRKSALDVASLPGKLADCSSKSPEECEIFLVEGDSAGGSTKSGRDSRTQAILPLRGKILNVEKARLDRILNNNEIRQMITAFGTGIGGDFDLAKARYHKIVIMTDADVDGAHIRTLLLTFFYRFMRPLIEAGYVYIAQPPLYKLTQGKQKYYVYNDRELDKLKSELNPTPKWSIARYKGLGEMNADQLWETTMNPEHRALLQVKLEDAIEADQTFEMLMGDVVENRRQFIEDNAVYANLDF
Sequence (P20831 whole entry): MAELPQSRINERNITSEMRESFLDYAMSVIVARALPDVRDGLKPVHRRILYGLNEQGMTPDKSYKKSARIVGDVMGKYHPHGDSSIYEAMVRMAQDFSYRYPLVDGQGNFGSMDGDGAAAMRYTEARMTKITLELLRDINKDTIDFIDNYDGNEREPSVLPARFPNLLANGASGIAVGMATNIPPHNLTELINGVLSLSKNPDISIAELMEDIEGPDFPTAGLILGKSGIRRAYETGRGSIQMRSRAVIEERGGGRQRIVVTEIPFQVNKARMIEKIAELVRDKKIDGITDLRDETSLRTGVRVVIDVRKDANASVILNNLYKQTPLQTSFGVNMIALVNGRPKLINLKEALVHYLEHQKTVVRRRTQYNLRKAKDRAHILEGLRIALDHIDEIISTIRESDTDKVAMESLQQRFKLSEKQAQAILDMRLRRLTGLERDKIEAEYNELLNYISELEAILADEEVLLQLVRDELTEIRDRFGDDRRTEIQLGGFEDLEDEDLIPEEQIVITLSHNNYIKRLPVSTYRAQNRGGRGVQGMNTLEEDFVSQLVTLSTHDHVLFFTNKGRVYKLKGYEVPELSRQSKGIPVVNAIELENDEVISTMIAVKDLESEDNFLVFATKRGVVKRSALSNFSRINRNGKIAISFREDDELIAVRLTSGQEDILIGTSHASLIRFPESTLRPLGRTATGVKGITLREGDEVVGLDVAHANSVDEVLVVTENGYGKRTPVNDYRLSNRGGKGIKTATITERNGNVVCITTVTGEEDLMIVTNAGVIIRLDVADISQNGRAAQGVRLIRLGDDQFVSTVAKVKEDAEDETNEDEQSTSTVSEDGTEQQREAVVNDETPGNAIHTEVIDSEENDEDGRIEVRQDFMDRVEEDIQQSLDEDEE
Experiment: Inhibition of Staphylococcus aureus DNA gyrase by supercoiling plate assay
Format: protein-complex assay
Settings: not given

In the case of Cc1[nH]c(C(=O)Nc2ccc(-n3nn[nH]c3=O)cc2N2CC[C@H](N)C2)c(Cl)c1Cl.Cl, the pIC50 was 6.92.

Tested on: not listed separately
Experiment: Inhibition of Escherichia coli DNA topoisomerase-IV relaxation plate assay
Settings: not given

Work on Cc1[nH]c(C(=O)Nc2ccc(-c3noc(=O)[nH]3)cc2N2CCCC2)c(Cl)c1Cl yielded a pIC50 of 5.62.

Tested on: Escherichia coli
Experiment: Inhibition of Escherichia coli DNA topoisomerase-IV assessed as residual activity at 10 uM by relaxation plate assay relative to control
Settings: not given

Cc1[nH]c(C(=O)Nc2ccc(-n3nn[nH]c3=O)cc2N2CC[C@H](N)C2)c(Cl)c1Cl.Cl showed an Activity of 26%.

Target: DNA topoisomerase 2-alpha (Homo sapiens, UniProt P11388)
Sequence (P11388 whole entry): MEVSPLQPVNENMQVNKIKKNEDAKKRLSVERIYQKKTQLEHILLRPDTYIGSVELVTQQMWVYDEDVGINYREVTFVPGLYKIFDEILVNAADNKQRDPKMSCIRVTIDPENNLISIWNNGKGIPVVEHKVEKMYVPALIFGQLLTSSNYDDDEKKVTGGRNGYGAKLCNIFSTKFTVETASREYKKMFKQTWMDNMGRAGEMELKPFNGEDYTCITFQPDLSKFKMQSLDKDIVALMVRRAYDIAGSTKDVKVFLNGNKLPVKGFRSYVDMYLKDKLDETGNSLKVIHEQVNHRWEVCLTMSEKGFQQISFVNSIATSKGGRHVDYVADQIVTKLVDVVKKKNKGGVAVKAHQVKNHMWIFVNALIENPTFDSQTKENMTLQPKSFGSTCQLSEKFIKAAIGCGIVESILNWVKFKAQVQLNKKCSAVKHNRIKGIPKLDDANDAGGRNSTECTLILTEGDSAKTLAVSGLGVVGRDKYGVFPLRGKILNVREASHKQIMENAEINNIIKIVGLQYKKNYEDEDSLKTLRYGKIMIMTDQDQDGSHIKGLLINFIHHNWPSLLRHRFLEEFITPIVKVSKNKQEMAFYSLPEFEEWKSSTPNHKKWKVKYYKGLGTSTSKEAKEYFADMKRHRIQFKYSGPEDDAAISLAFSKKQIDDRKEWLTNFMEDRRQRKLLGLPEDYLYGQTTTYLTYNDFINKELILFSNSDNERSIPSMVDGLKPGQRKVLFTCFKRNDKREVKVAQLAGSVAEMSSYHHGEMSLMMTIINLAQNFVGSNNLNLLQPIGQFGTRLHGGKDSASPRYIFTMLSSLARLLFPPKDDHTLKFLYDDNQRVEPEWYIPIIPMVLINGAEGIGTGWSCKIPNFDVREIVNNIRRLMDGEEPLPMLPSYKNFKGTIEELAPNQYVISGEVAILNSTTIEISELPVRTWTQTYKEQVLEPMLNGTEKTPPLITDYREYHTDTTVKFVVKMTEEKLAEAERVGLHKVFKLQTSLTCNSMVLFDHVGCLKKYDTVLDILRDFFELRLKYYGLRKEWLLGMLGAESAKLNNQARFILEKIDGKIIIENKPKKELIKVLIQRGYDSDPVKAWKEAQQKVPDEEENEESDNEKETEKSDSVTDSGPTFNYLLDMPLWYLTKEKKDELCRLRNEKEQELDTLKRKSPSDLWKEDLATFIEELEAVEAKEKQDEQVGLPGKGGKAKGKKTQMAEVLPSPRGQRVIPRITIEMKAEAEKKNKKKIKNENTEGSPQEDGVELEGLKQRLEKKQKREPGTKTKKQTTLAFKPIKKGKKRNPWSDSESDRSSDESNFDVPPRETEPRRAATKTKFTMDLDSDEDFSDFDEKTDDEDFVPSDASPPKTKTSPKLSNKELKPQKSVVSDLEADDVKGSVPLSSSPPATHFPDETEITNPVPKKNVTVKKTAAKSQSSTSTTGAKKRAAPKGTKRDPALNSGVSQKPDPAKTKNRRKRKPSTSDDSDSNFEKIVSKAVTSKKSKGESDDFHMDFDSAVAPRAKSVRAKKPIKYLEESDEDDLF
Experiment: Inhibition of human DNA topoisomerase 2-alpha using linear pBR322 as substrate assessed as conversion of NADH to NAD+ by measuring residual activity at 100 uM preincubated for 10 to 15 mins in presence of pyruvate kinase/lactate dehydrogenase mix followed by ATP addition and measured after 30 mins by ATPase assay relative to control
Settings: time 40-55 min

Going from Cc1[nH]c(C(=O)Nc2ccc(-c3noc(=O)[nH]3)cc2N2CCCC2)c(Cl)c1Cl to Cc1[nH]c(C(=O)Nc2ccc(-n3nn[nH]c3=O)cc2N2CC[C@H](N)C2)c(Cl)c1Cl.Cl, the Activity rises from 99% to 108%.

Tested on: Staphylococcus aureus
Experiment: Antibacterial activity against Staphylococcus aureus ATCC 29213 assessed as inhibition of bacterial growth by broth microdilution method
Format: functional
Settings: not given

Cc1[nH]c(C(=O)Nc2ccc(-c3noc(=O)[nH]3)cc2N2CCCC2)c(Cl)c1Cl and Cc1[nH]c(C(=O)Nc2ccc(-n3nn[nH]c3=O)cc2N2CC[C@H](N)C2)c(Cl)c1Cl.Cl cannot be ordered by MIC: greater than 64 µg/mL for the first, greater than 32 µg/mL for the second.

Tested on: Staphylococcus aureus
Experiment: Antibacterial against methicillin resistant Staphylococcus aureus ATCC 43300 assessed as inhibition of bacterial growth by broth microdilution method
Format: functional
Settings: time 24 hrs

First: Cc1[nH]c(C(=O)Nc2ccc(-c3noc(=O)[nH]3)cc2N2CCCC2)c(Cl)c1Cl
Second: Cc1[nH]c(C(=O)Nc2ccc(-n3nn[nH]c3=O)cc2N2CC[C@H](N)C2)c(Cl)c1Cl.Cl
The MIC of the first is lower: 0.5 µg/mL (≈ 1.18 µM) for the first, greater than 32 µg/mL for the second.

Tested on: Staphylococcus aureus
Experiment: Antibacterial against vancomycin-intermediate Staphylococcus aureus ATCC 700699 assessed as inhibition of bacterial growth by broth dilution method
Format: functional
Settings: not given

Going from Cc1[nH]c(C(=O)Nc2ccc(-c3noc(=O)[nH]3)cc2N2CCCC2)c(Cl)c1Cl to Cc1[nH]c(C(=O)Nc2ccc(-n3nn[nH]c3=O)cc2N2CC[C@H](N)C2)c(Cl)c1Cl.Cl, the MIC rises from less than 0.031 µg/mL to 64 µg/mL.

Tested on: Enterococcus faecalis
Experiment: Antibacterial activity against Enterococcus faecalis ATCC 29212 assessed as inhibition of bacterial growth by broth microdilution method
Format: functional
Settings: not given

Going from Cc1[nH]c(C(=O)Nc2ccc(-c3noc(=O)[nH]3)cc2N2CCCC2)c(Cl)c1Cl to Cc1[nH]c(C(=O)Nc2ccc(-n3nn[nH]c3=O)cc2N2CC[C@H](N)C2)c(Cl)c1Cl.Cl, the MIC rises from less than 0.031 µg/mL to 64 µg/mL.

Tested on: Enterococcus faecium
Experiment: Antibacterial activity against vancomycin-resistant Enterococcus faecium ATCC 700221 assessed as inhibition of bacterial growth by broth microdilution method
Format: functional
Settings: not given

Going from Cc1[nH]c(C(=O)Nc2ccc(-c3noc(=O)[nH]3)cc2N2CCCC2)c(Cl)c1Cl to Cc1[nH]c(C(=O)Nc2ccc(-n3nn[nH]c3=O)cc2N2CC[C@H](N)C2)c(Cl)c1Cl.Cl, the MIC rises from 0.063 µg/mL (≈ 0.149 µM) to greater than 32 µg/mL.

Tested on: Escherichia coli
Experiment: Antibacterial activity against Escherichia coli ATCC 25922 assessed as inhibition of bacterial growth by broth microdilution method
Format: functional
Settings: not given

Cc1[nH]c(C(=O)Nc2ccc(-c3noc(=O)[nH]3)cc2N2CCCC2)c(Cl)c1Cl and Cc1[nH]c(C(=O)Nc2ccc(-n3nn[nH]c3=O)cc2N2CC[C@H](N)C2)c(Cl)c1Cl.Cl cannot be ordered by MIC: greater than 64 µg/mL for the first, greater than 32 µg/mL for the second.

Tested on: Enterobacter cloacae
Experiment: Antibacterial activity against Enterobacter cloacae subsp. cloacae ATCC 13047 assessed as inhibition of bacterial growth by broth microdilution method
Format: functional
Settings: not given

Cc1[nH]c(C(=O)Nc2ccc(-c3noc(=O)[nH]3)cc2N2CCCC2)c(Cl)c1Cl and Cc1[nH]c(C(=O)Nc2ccc(-n3nn[nH]c3=O)cc2N2CC[C@H](N)C2)c(Cl)c1Cl.Cl cannot be ordered by MIC: greater than 64 µg/mL for the first, greater than 32 µg/mL for the second.

Tested on: Pseudomonas aeruginosa
Experiment: Antibacterial activity against Pseudomonas aeruginosa ATCC 27853 assessed as inhibition of bacterial growth by broth microdilution metho
Format: functional
Settings: not given

Cc1[nH]c(C(=O)Nc2ccc(-c3noc(=O)[nH]3)cc2N2CCCC2)c(Cl)c1Cl and Cc1[nH]c(C(=O)Nc2ccc(-n3nn[nH]c3=O)cc2N2CC[C@H](N)C2)c(Cl)c1Cl.Cl cannot be ordered by MIC: greater than 64 µg/mL for the first, greater than 32 µg/mL for the second.

Tested on: Klebsiella pneumoniae
Experiment: Antibacterial activity against Klebsiella pneumoniae ATCC 10031 assessed as inhibition of bacterial growth by broth microdilution method
Format: functional
Settings: not given

Cc1[nH]c(C(=O)Nc2ccc(-c3noc(=O)[nH]3)cc2N2CCCC2)c(Cl)c1Cl and Cc1[nH]c(C(=O)Nc2ccc(-n3nn[nH]c3=O)cc2N2CC[C@H](N)C2)c(Cl)c1Cl.Cl cannot be ordered by MIC: greater than 64 µg/mL for the first, greater than 32 µg/mL for the second.

Tested on: Acinetobacter baumannii
Experiment: Antibacterial activity against Acinetobacter baumannii ATCC 17978 assessed as inhibition of bacterial growth by broth microdilution method
Format: functional
Settings: not given

Cc1[nH]c(C(=O)Nc2ccc(-c3noc(=O)[nH]3)cc2N2CCCC2)c(Cl)c1Cl and Cc1[nH]c(C(=O)Nc2ccc(-n3nn[nH]c3=O)cc2N2CC[C@H](N)C2)c(Cl)c1Cl.Cl cannot be ordered by MIC: greater than 64 µg/mL for the first, greater than 32 µg/mL for the second.

Tested on: MCF7
Experiment: Cytotoxicity against human MCF7 cells assessed as cell viability at 50 uM incubated for 72 hrs by CellTiter 96 aqueous one solution reagent based MTS assay relative to control
Format: functional
Settings: read-out: Activity

Cc1[nH]c(C(=O)Nc2ccc(-c3noc(=O)[nH]3)cc2N2CCCC2)c(Cl)c1Cl showed a viability at 50 µM of 119%.

Tested on: not listed separately
Experiment: Metabolic stability in human liver microsomes assessed as half life at 1 uM preincubated for 10 mins followed by NADPH addition and measured after 5 to 60 mins by LC-MS/MS analysis
Format: ADME, Microsome
Settings: time 15-70 min

Work on Cc1[nH]c(C(=O)Nc2ccc(-c3noc(=O)[nH]3)cc2N2CCCC2)c(Cl)c1Cl yielded a half-life at 1 µM of 1.31 h.

Tested on: not listed separately
Experiment: Metabolic stability in human liver microsomes assessed as intrinsic clearance at 1 uM preincubated for 10 mins followed by NADPH addition and measured after 5 to 60 mins by LC-MS/MS analysis
Format: ADME, Microsome
Settings: time 15-70 min, read-out: CLH

Cc1[nH]c(C(=O)Nc2ccc(-c3noc(=O)[nH]3)cc2N2CCCC2)c(Cl)c1Cl gave a microsomal CLint at 1 µM of 17.6 µL/min/mg.

Tested on: not listed separately
Experiment: Metabolic stability in mouse liver microsomes assessed as half life at 1 uM preincubated for 10 mins followed by NADPH addition and measured after 5 to 60 mins by LC-MS/MS analysis
Format: ADME, Microsome
Settings: time 15-70 min

Cc1[nH]c(C(=O)Nc2ccc(-c3noc(=O)[nH]3)cc2N2CCCC2)c(Cl)c1Cl gave a half-life at 1 µM of 2.1 h.

Tested on: not listed separately
Experiment: Metabolic stability in mouse liver microsomes assessed as intrinsic clearance at 1 uM preincubated for 10 mins followed by NADPH addition and measured after 5 to 60 mins by LC-MS/MS analysis
Format: ADME, Microsome
Settings: time 15-70 min, read-out: CLH

In the case of Cc1[nH]c(C(=O)Nc2ccc(-c3noc(=O)[nH]3)cc2N2CCCC2)c(Cl)c1Cl, the microsomal CLint at 1 µM was 11 µL/min/mg.
